Assay results taken from patent US6794494B1, “Cancerous disease modifying antibodies” (Arius Research, Inc., priority 2003, dated 2004).

B1: 17-1A: antibody with some specificity for adenocarcinomas, tested in colorectal cancer clinical trials (antibody, chains of the INN, looked up, V domains shown)
VH: QVQLQQSGAELVRPGTSVKVSCKASGYAFTNYLIEWVKQRPGQGLEWIGVINPGSGGTNYNEKFKGKATLTADKSSSTAYMQLSSLTSDDSAVYFCARDGPWFAYWGQGTLVTVSA
VL: NIVMTQSPKSMSMSVGERVTLTCKASENVVTYVSWYQQKPEQSPKLLIYGASNRYTGVPDRFTGSGSATDFTLTISSVQAEDLADYHCGQGYSYPYTFGGGTKLEIK

What was measured:
Lovo cells = conditions: 5 days; four experiments in triplicate; concentration (10A304.7, Anti-Fas, 107.3, MPC-11 20 μg/mL; c225 5 μg/mL; Cycloheximide 100 μM)
OVCAR cells = conditions: 5 days; four experiments in triplicate; concentration (10A304.7, Anti-Fas, 107.3, MPC-11 20 μg/mL; c225 5 μg/mL; Cycloheximide 100 μM)
HT-29 cells [1] = assay: Live/Dead cytotoxicity assay, purified antibody; conditions: 5 days; four experiments in triplicate; concentration (10A304.7, Anti-Fas, 107.3, MPC-11 20 μg/mL; c225 5 μg/mL; Cycloheximide 100 μM)
BxPC-3 cells = conditions: 5 days; four experiments in triplicate; concentration (10A304.7, Anti-Fas, 107.3, MPC-11 20 μg/mL; c225 5 μg/mL; Cycloheximide 100 μM)
PC-3 cells = conditions: 5 days; four experiments in triplicate; concentration (10A304.7, Anti-Fas, 107.3, MPC-11 20 μg/mL; c225 5 μg/mL; Cycloheximide 100 μM)
SW1116 cells [2] = conditions: 5 days; four experiments in triplicate; concentration (10A304.7, Anti-Fas, 107.3, MPC-11 20 μg/mL; c225 5 μg/mL; Cycloheximide 100 μM)
SW620 cells [3] = assay: Live/Dead cytotoxicity assay, purified antibody; conditions: 5 days; four experiments in triplicate; concentration (10A304.7, Anti-Fas, 107.3, MPC-11 20 μg/mL; c225 5 μg/mL; Cycloheximide 100 μM)
DLD-1 cells = conditions: 5 days; four experiments in triplicate; concentration (10A304.7, Anti-Fas, 107.3, MPC-11 20 μg/mL; c225 5 μg/mL; Cycloheximide 100 μM)
MB-231 cells = conditions: 5 days; four experiments in triplicate; concentration (10A304.7, Anti-Fas, 107.3, MPC-11 20 μg/mL; c225 5 μg/mL; Cycloheximide 100 μM)
SW620 cells [4] = conditions: human
SW1116 cells [5] = assay: Live/Dead cytotoxicity assay, hybridoma supernatant; conditions: hybridoma supernatant or controls, 5 days
MCF-7 cells = conditions: 5 days; four experiments in triplicate; concentration (10A304.7, Anti-Fas, 107.3, MPC-11 20 μg/mL; c225 5 μg/mL; Cycloheximide 100 μM)
HT-29 cells [6] = conditions: human
colorectal cancer = conditions: cited from earlier work

Row | Molecule | Cytotoxicity above background, Colon Lovo (Lovo cells) | Cytotoxicity above background, Ovary OVCAR (OVCAR cells) | Cytotoxicity above background, Colon HT-29 (HT-29 cells [1]) | Cytotoxicity above background, Pancreas BxPC-3 (BxPC-3 cells) | Cytotoxicity above background, Prostate PC-3 (PC-3 cells) | Cytotoxicity above background, Colon SW1116 (SW1116 cells [2]) | Cytotoxicity above background, Colon SW820 (SW620 cells [3]) | Cytotoxicity above background, Colon DLD-1 (DLD-1 cells) | Cytotoxicity above background, Breast MB-231 (MB-231 cells) | Cytotoxicity (%) SW620 Average (SW620 cells [4]) [%] | Cytotoxicity (%) SW1116 Average (SW1116 cells [5]) [%] | Cytotoxicity above background, Breast MCF-7 (MCF-7 cells) | Cytotoxicity (%) HT-29 Average (HT-29 cells [6]) [%] | clinical response, protocols using additional cyclophosphamide (colorectal cancer; 52 patients, with cyclophosphamide) | clinical response, Phase 2 clinical trials (colorectal cancer; over 60 patients)
1 | C[C@@H]1C[C@@H]([C@H](O)CC2CC(=O)NC(=O)C2)C(=O)[C@@H](C)C1 [Cycloheximide] | ++++ (4/4 experiments with 15% cytotoxicity above background (++++)) | ++++ (4/4 experiments with 15% cytotoxicity above background (++++)) | ++++ (4/4 experiments with 15% cytotoxicity above background (++++)) | ++++ (4/4 experiments with 15% cytotoxicity above background (++++)) | ++++ (4/4 experiments with 15% cytotoxicity above background (++++)) | ++++ (4/4 experiments with 15% cytotoxicity above background (++++)) | ++++ (4/4 experiments with 15% cytotoxicity above background (++++)) | ++++ (4/4 experiments with 15% cytotoxicity above background (++++)) | ++++ (4/4 experiments with 15% cytotoxicity above background (++++)) | −2 | 17 | ++++ (4/4 experiments with 15% cytotoxicity above background (++++)) | 23 |  | 
2 | B1 |  |  |  |  |  |  |  |  |  |  |  |  |  | only one complete response and two minor responses among 52 patients | only one patient having a partial response
